Measurements as given in patent publication US11066421B1, “Synthetic cinchona alkaloids against cancer” (Ares Pharmaceuticals, LLC, priority 2021, dated 2021).

Test system: primary leukemia/lymphoma cells
Assay: Annexin V flow cytometric apoptosis assay in primary cells from patients
Type: cell-based, human
Method: Apoptotic death was monitored using multiparameter flow cytometry, as previously reported (F. M. Uckun, et al., 2011, British Journal of Haematology, 153:741-752; F. M. Uckun et al., 2015, J Clin Invest., 125:1006-18). Controls included vehicle (PBS) treated cells (CON). Cells were analyzed for apoptosis using the standard quantitative flow cytometric apoptosis assay using the Annexin V-FITC Apoptosis Detection Kit from Sigma. The labeled cells were analyzed on a flow cytometer. The percent apoptosis was calculated using the formula: 100-100×(Percentage of non-apoptotic cells in test sample/Percentage of non-apoptotic cells in untreated control sample). The percentages for Annexin V FITC^−PI^− viable cells and Annexin V-FITC^+PI^+ advanced apoptotic cells for each sample are indicated in the respective quadrants of the depicted two-color fluorescence dot plots.
We examined the ability AP-5 to cause apoptotic death in freshly obtained primary cancer cells from Ficoll-Hypaque separated, highly enriched populations of primary leukemia/lymphoma cells isolated from bone marrow (BM, N=13) or peripheral blood (PB, N=13) specimens of 26 patients with hematological malignancies, 3 patients with rare forms of leukemia (one each with prolymphocytic leukemia [PLL], plasma cell leukemia [PCL], large granular cell leukemia [LGL]), one patient with chronic myeloid leukemia in blast crisis (CML-BC), including 8 patients with chronic lymphocytic leukemia (CLL)/well differentiated lymphocytic lymphoma (WDLL), one patient with acute myeloid leukemia (AML), 11 patients with B-lineage acute lymphoblastic leukemia (ALL) and 2 patients with T-lineage ALL (FIG. 1). Cells were treated with standard chemotherapeutic agents at various concentrations provided in RPMI-1640 medium supplemented with 10% fetal bovine serum (FBS) and incubated at 37° C. for 24 hr. Dexamethasone (DEQ.) was used. at 50 μg/ml, Adriamycin (ADR) at 10 μg/ml, vincristine (VCR), gemcitabine (GEM), fludarabine (FLU), methotrexate (MTX), etoposide (ETO), cytarabine (ARA-C) and cladribine (2-CDA) at 25 μg/ml. The cells were washed with serum-free RPMI-1640 medium and then processed for apoptosis assays. […]
Apoptotic death was monitored using multiparameter flow cytometry, as previously reported (F. M. Uckun et at, 2006, Brit Journal of Hematol. 135:500-8; F. M. Uckun et al., 2011, Brit Journal of hematol. 153:741-52; F. M. Uckun et al., 2015, J. Clin. Invest. 125:1006-18). Exposure of phosphatidylserine to the outer leaflet of the leukemic cell membrane was measured using fluorescein isothiocyanate (FITC)-conjugated annexin V, the natural ligand of phosphatidylserine (R&D Systems, Minneapolis, Minn., USA). […] The labelled cells were analyzed using a FACS Vantage flow cytometer (Becton Dickinson, Mountain view, CA, USA). […]

[1] = 24 hr in vitro exposure, primary cells from 26 patients

Q: What does the source list for “2,4,6-Tri (9-O-dihydrocinchoninyl)pyrimidine [AP-5]”?
A: % apoptosis (Mean±SE) [1]: 93.5±1.1%; median percentage of apoptosis [1]: 96.1%; % apoptosis (range) (24 hr in vitro exposure, primary cells from 26 patients, range): 79.9-99.6%; potency versus standard chemotherapy drugs tested side by side (24 hr, % apoptosis compared): substantially more potent than any of the 9 standard chemotherapy drugs tested side by side
